1 molecule from patent US12516052B2, “Methyltransferase 5 (PRMT5) inhibitors and methods of treatment” (THE TRUSTEES OF INDIANA UNIVERSITY, priority 2016, dated 2026) can be followed below.

Entries after “also recorded” stand apart in the source; their conditions may differ.

The target of assay [1] is T1, PRMT5 (Homo sapiens, UniProt O14744).
T1 construct: Flag; made in house; host or cells: 293 cells
The assay can be described thus: AlphaLISA PRMT5 methylation assay (biotin-histone H4R3, SAM). It is filed as biochemical. The note with it: PRMT5 methylation of histone H4R3, in vitro; read-out: IC50 using AlphaLISA. As for the experimental part:
FIG. 1 is a schematic illustration of the AlphaLISA technique for the identification of small-molecule PRMT5 inhibitors. Biotinylated substrate (histone H4) is incubated with PRMT5 and methyl donor, S-adenosyl-1-methionine (SAM). PRMT5 symmetrically dimethylates the third arginine (R3) on biotin-H4 to form biotin-H4R3me2. This product is recognized by Acceptor beads specific for this methylation site. Donor beads have a streptavidin tag and bind to biotin-H4. Interaction between the Acceptor and Donor beads emits a chemiluminescent signal, which is detected by an ENVISION™ Reader (PerkinElmer, Waltham, MA). The methylation activity of PRMT5 is proportional to the intensity of this signal.
In order to identify PRMT5 inhibitors, the AlphaLISA technique (PerkinElmer, Waltham, MA) was adapted to an assay that could precisely quantify PRMT5 dimethylation of its substrate in a 384-well HTS platform (FIG. 1). The AlphaLISA high-throughput screen comprises incubating a biotinylated substrate (e.g., histone H4), PRMT5, and a methyl donor (e.g., S-adenosyl-1-methionine (SAM)); PRMT5 dimethylates the biotinylated substrate and the dimethylated biotinylated substrate is recognized by Acceptor beads specific for the methylation site. Donor beads comprising a tag (e.g., streptavadin) bind to the biotinylated substrate, and interaction between the Acceptor beads and Donor beads emits a signal (e.g., chemiluminescent signal), which can be detected. The methylation activity of PRMT5 is proportional to the intensity of the signal.
In one embodiment of the method used to identify the compounds disclosed herein, PRMT5 enzyme was purified with anti-Flag-M2 beads (Sigma-Aldrich, St. Louis, MO) from 293 cells overexpressing the Flag-PRMT5 protein (Wei et al., Proc Natl Acad Sci USA, 2013; 110: 13516-13521). The enzyme prep was diluted at 1:10 in assay buffer (30 mM Tris, pH 8.0, 1 mM DTT, 0.01% BSA, 0.01% Tween-20) before use. […] The plates were read using an ENVISION™ Reader (PerkinElmer, Waltham, MA).
(In general: Bead proximity is the source of the signal in Alpha formats.)

Assay [2] concerns NF-κB target genes (TNFα and IL8). The assay can be described thus: qPCR of NF-κB target genes in PANC1 cells. It is filed as cell-based. As to conditions: treated vs untreated. As for the experimental part: Furthermore, experiments were performed to determine if PRMT5 inhibition by compound (IIa) could decrease the expression of NF-κB target genes (e.g., pro-inflammatory cytokines TNFα and IL-8). Briefly, HT29 and PANC1 cells were treated with or without compound (IIa), and target gene expression was analyzed by quantitative PCR.

T1 sequence (O14744 whole entry): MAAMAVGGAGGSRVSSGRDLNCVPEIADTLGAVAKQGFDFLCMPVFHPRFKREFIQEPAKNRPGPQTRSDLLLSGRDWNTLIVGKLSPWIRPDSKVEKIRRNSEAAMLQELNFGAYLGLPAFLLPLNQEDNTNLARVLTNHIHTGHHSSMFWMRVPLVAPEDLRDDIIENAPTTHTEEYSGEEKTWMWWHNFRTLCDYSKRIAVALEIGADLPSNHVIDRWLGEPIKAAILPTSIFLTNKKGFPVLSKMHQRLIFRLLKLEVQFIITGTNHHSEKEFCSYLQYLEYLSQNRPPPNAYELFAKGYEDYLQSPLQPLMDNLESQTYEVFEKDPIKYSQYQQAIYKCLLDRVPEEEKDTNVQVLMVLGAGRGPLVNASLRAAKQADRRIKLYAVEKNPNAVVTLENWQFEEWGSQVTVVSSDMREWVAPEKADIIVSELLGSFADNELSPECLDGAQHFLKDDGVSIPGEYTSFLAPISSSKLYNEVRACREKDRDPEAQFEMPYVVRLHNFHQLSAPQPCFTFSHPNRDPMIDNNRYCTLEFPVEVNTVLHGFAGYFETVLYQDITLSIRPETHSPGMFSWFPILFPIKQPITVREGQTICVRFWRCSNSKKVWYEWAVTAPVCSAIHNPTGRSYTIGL
T1 sequence (Q9BQA1 whole entry partner): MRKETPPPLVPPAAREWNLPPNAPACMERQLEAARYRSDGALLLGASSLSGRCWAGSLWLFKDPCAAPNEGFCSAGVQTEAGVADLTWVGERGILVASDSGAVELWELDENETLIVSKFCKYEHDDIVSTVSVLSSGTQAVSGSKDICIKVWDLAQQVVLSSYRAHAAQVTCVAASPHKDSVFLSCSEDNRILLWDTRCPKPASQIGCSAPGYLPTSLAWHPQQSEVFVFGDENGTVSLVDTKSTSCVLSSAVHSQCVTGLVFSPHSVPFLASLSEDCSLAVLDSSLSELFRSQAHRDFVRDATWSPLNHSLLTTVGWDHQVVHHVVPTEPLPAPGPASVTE

For the molecule `Cc1ccc(Nc2nc(NCCN(C)C)nc3c2cnn3-c2ccccc2)cc1C` [compound (IIa)], in assay [1], the IC50 was about 7.5 µM. Besides, in assay [2], the “IL8 expression (qPCR), PANC1” value is given as “significant decrease; also recorded: dramatically decreased” and the “TNFα expression (qPCR), PANC1” value is “significant decrease; also recorded: dramatically decreased”.

For orientation: IC50 means the concentration that gives 50% inhibition.
